In the test the test system is Actinobacillus actinomycetemcomitans. Nature of the test: Standard colony forming units (CFU) assay of LL-37 on A. actinomycetemcomitans. Format: cell-based. How it is done:
In this study we used an isolate of Actinobacillus actinomycetemcomitans from the oral cavitas of patient (A), kindly provided by Dr A. Johansson (Umeå). Bacteria were routinely grown on tryptic soy agar (Difco) supplemented with 0.5% yeast extract (TSBY) at microaerophilic conditions. The effect of LL-37 on A. actinomycetemcomitans was tested in a standard colony forming units (CFU)-assay (Tanaka et al., Oral Microbiol Immunol. 2000;15(4):226-31) by incubating 10^5 bacteria for 90 min with 20 μg/ml of synthetic LL-37 in 10 mM phosphate buffer pH 7.2 with 1% TSBY.

For “LL-37: Human cathelicidin-type antibacterial peptide encoded by the CAMP gene, SEQ ID NO: 3; released from the proform cathelin-LL-37 (LLGDFFRKSKEKIGKEFKRIVQRIKDFLRNLVPRTES; homo sapiens)”, the “reduction in colony counts” value (20 μg/ml LL-37 for 90 min, 10^5 bacteria, isolate from patient (A), 10 mM phosphate buffer pH 7.2 with 1% TSBY) is reported as 3-4 log. Also, the “effect on growth of the bacteria in vitro” value (A. actinomycetemcomitans isolated from patient (A)) was “could stop the growth”.

The record behind these values is patent US7591997B2, “Method for determining the susceptibility of a subject to infection” (Mabtech AB, priority 2002, dated 2009).
